Tested on: vine weevil
Test: Drench treatments of potted Fuchsia triphylla hybrid cv. Koralle infested with vine weevil eggs (curative)
Format: in vivo
Details: curative drench treatment; after 6 months
Description: In 20-replicate tests, Fuchsia triphylla hybrid cv. Koralle was infested with 15 eggs per pot of vine weevil. Compound A in the form of an 80% water dispersible granule (Regent 800 WG) was suspended in water and added to each pot at the indicated rate per surface area of the pot at various dilutions. After 6 months, the trials were assessed.

N#Cc1nn(-c2c(Cl)cc(C(F)(F)F)cc2Cl)c(N)c1[S+]([O-])C(F)(F)F (stereo not shown) [Compound A, 5-amino-1-(2,6-dichloro 4-trifluoromethylphenyl) 4-trifluoromethylsulfinyl-3-cyanopyrazole]
protection of the plants compared with fonofos: protected the plants substantially better than the commercial standard fonofos
